In patent US10351915B2 (Berg LLC, priority 2009, dated 2019):

Experiments:
HDFa cells = test: Extracellular acidification rate (ECAR), SeaHorse XF analyzer; format: cell-based, human
Excerpt: (SeaHorse Biosciences Inc, North Billerica, Mass.).
In this experiment, the OCR and extracellular acidification rate (ECAR) in normal cells lines were obtained in the presence and absence of CoQ10 to determine baseline values. It was observed that in its native nutrient environment, the basal OCR rates in normal cells lines are different, and are usually a function of the physiological roles of the cells in the body.
Table 127 below describes the ECAR values (mpH/min) in HDFa cells in the presence or absence of CoQ10 under normoxic and hypoxic conditions at 5.5 mM and 22 mM glucose.

various cell types = test: Minimal CoQ10 concentration and treatment time for induction of early apoptosis (Bcl-2, caspase, annexin V); format: cell-based
Protocol: CoQ10 treatment of cells was carried out as described in detail below in the Materials and Methods. Induction of apoptosis was assessed in the treated cells by monitoring indicators of early apoptosis (e.g., Bcl-2 expression, caspase activation and by using annexin V assays) as described below. From these studies, the minimal CoQ10 dosage, e.g., concentration of CoQ10 and time of treatment, required to induce apoptosis in the panel of cell lines was determined.
Cells were cultured in T-75 flasks with relevant medium supplemented with 10% Fetal Bovine Serum (FBS), 1% PSA (penicillin, streptomycin, amphotericin B) (Invitrogen and Cellgro) in a 37° C. incubator with 5% CO2 levels until 70-80% confluence was reached. To harvest cells for treatment, flasks were primed with 1 mL Trypsin, aspirated, trypsinized with an additional 3 mL, and incubated at 37° C. for […]. Cells were then neutralized with an equal volμme of media and the subsequent solution was centrifuged at […] for 8 minutes. The supernatant was aspirated and the cells were resuspended with 8.5 ml of media. A mixture of 500 ul of the resuspension and 9.5 ml of […] was read twice by a coulter counter and the appropriate number of cells to be seeded into each dish was determined. Control and concentration ranging from 0-200 μM groups were examined in triplicate. From a 500 μM CoQ-10 stock solution, serial dilutions were performed to achieve desired experimental concentration in appropriate dishes. Dishes were incubated in a 37° C. incubator with 5% CO2 levels for 0-72 hours depending on cell type and experimental protocol.
The volume of sample to load per well was determined using the raw mean concentration of protein obtained from the BCA protein assay. Approximately 30-60 μg of protein were loaded for each treatment time point. Proteins were run in triplicate on 12% Tris-HCl ready gels (Bio-Rad) or hand cast gels in 1× running buffer at 85 and 100 volts. Proteins were then transferred onto nitrocellulose paper for an hour at 100 volts, and blocked for another hour in a 5% milk solution. Membranes were placed in primary antibody (1 uL Ab:1000 uL TBST) (Cell Signaling) overnight at […] The following day, membranes were washed three times for ten minutes each with Tris-Buffered Saline Tween-20 (TBST), and secondary antibody (anti-rabbit; 1 uL Ab: 1000 uL TBST) was applied for an hour at […] Membranes were washed again three times for ten minutes with TBST and chemoluminescence using Pico or Femto substrate was completed (Pierce). Membranes were then developed at time intervals that produced the best visual results. After developing, membranes were kept in TBST at […] until Actin levels could be measured.
Cells were washed twice in PBS10X and resuspended in Binding Buffer (0.1 M HEPES, pH 7.4; 1.4 M NaCl; 25 mM CaCl2). Samples of 100 μl were added to a culture tube with 5 μl of annexin-PE dye or […]. The cells were mixed and incubated without light at room temperature for 15 minutes. After which, 400 μl of 1× Binding Buffer was added to each sample and they were subjected to analysis by flow cytometry.

## COC1=C(OC)C(=O)C(C/C=C(\C)CC/C=C(\C)CC/C=C(\C)CC/C=C(\C)CC/C=C(\C)CC/C=C(\C)CC/C=C(\C)CC/C=C(\C)CC/C=C(\C)CCC=C(C)C)=C(C)C1=O [Q10, Coenzyme Q10]
HDFa cells; high glucose hypoxic conditions
  ECAR: lowering of elevated ECAR
HDFa cells; normoxic and hypoxic, 5.5 mM and 22 mM glucose
  ECAR values: minimal influence on ECAR values
Various cell types; BONE: Ewing's sarcoma (NCI)
  Indication of Early apoptosis (Bcl-2, annexin V, or caspase activation): Extremely
  Minimal treatment Time for induction of early apoptosis: 1 h
Various cell types; BONE: Osteosarcoma (143b)
  Indication of Early apoptosis (Bcl-2, annexin V, or caspase activation): Very Strong
  Minimal treatment Time for induction of early apoptosis: 48 h
Various cell types; BREAST: BT-20
  Indication of Early apoptosis (Bcl-2, annexin V, or caspase activation): Strong
  Minimal treatment Time for induction of early apoptosis: 48 h
Various cell types; BREAST: MCF-7
  Indication of Early apoptosis (Bcl-2, annexin V, or caspase activation): Strong
  Minimal treatment Time for induction of early apoptosis: 48 h
Various cell types; BREAST: MDA MB 468
  Indication of Early apoptosis (Bcl-2, annexin V, or caspase activation): Strong
  Minimal treatment Time for induction of early apoptosis: 48 h
Various cell types; BREAST: SkBr-3
  Indication of Early apoptosis (Bcl-2, annexin V, or caspase activation): Very Strong
  Minimal treatment Time for induction of early apoptosis: 24 h
Various cell types; BREAST: ZR-75
  Indication of Early apoptosis (Bcl-2, annexin V, or caspase activation): Slight
  Minimal treatment Time for induction of early apoptosis: 72 h
Various cell types; Heart: Aortic smooth muscle (HASMC)
  Indication of Early apoptosis (Bcl-2, annexin V, or caspase activation): None
Various cell types; LIVER: Hep3B
  Indication of Early apoptosis (Bcl-2, annexin V, or caspase activation): Very Strong
  Minimal treatment Time for induction of early apoptosis: 24 h
Various cell types; LIVER: HepG2
  Indication of Early apoptosis (Bcl-2, annexin V, or caspase activation): Very Strong
  Minimal treatment Time for induction of early apoptosis: 24 h
Various cell types; Mammary fiboblasts: 184A1 and 184B5
  Indication of Early apoptosis (Bcl-2, annexin V, or caspase activation): None
Various cell types; Melanoma (Skmel 2)
  Indication of Early apoptosis (Bcl-2, annexin V, or caspase activation): Very Strong
  Minimal treatment Time for induction of early apoptosis: 24 h
Various cell types; Melanoma (Skmel 28)
  Indication of Early apoptosis (Bcl-2, annexin V, or caspase activation): Strong
  Minimal treatment Time for induction of early apoptosis: 24 h
Various cell types; PANCREAS: PaCa2
  Indication of Early apoptosis (Bcl-2, annexin V, or caspase activation): Very Strong
  Minimal treatment Time for induction of early apoptosis: 24 h
Various cell types; PROSTATE: PC3
  Indication of Early apoptosis (Bcl-2, annexin V, or caspase activation): Very Strong
  Minimal treatment Time for induction of early apoptosis: 24 h
Various cell types; SCC, Squamous cell carcinoma
  Indication of Early apoptosis (Bcl-2, annexin V, or caspase activation): Very Strong
  Minimal treatment Time for induction of early apoptosis: 24 h
Various cell types; SKIN: Fibroblasts (nFib)
  Indication of Early apoptosis (Bcl-2, annexin V, or caspase activation): None
Various cell types; SKIN: Keratinocytes (Heka, Hekn)
  Indication of Early apoptosis (Bcl-2, annexin V, or caspase activation): None
Various cell types; SKIN: Melanocytes (Hema, LP)
  Indication of Early apoptosis (Bcl-2, annexin V, or caspase activation): None
Various cell types; normal cells, including keratinocytes and dermal fibroblasts
  effect on normal cells: increased proliferation and migration
Various cell types; oncogenic cell lines
  efficacy of Coenzyme Q10 treatment (induction of apoptosis): greater in cell types that exhibited increased oncogenicity and/or greater metastatic potential
